{
  "source": "paper PMC10643470",
  "about": "“Knockout or inhibition of USP30 protects dopaminergic neurons in a Parkinson’s disease mouse model” (Nature Communications, 2023)",
  "key": {"OTUB1/UBCH5B": {"molecular_target": "OTUB1/UBCH5B (Homo sapiens, UniProt Q96FW1)", "test": "DUB/cathepsin selectivity biochemical assay"}, "USP2": {"molecular_target": "USP2 (Homo sapiens, UniProt O75604)", "sequence (O75604 whole entry, species assumed)": "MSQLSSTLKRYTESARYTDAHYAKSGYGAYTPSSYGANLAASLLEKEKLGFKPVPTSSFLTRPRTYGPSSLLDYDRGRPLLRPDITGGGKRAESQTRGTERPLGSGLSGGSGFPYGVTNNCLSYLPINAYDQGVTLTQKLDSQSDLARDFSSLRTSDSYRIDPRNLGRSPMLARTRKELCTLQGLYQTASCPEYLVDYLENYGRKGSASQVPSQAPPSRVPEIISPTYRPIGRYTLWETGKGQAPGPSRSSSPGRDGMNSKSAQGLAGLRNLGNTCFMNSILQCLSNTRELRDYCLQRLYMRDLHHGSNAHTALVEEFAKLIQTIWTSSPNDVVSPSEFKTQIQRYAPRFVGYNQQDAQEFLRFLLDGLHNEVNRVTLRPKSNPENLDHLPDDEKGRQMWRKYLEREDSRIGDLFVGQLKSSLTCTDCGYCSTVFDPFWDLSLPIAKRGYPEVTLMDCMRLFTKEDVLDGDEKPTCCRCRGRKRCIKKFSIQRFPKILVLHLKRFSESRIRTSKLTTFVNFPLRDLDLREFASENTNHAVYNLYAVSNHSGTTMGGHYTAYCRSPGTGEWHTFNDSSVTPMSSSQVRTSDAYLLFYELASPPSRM", "test": "DUB/cathepsin selectivity biochemical assay"}, "USP46/UAF1": {"molecular_target": "USP46/UAF1 (Homo sapiens, UniProt P62068)", "test": "DUB/cathepsin selectivity biochemical assay"}, "USP25": {"molecular_target": "USP25 (Homo sapiens, UniProt Q9UHP3)", "test": "DUB/cathepsin selectivity biochemical assay"}, "mouse USP30": {"molecular_target": "T1, mouse USP30 (Mus musculus, UniProt Q3UN04)", "T1 construct": "Mouse USP30(57-517) (Boston Biochem, #E-582M); purchased Boston Biochem E-582M", "T1 sequence (Q3UN04 57-517)": "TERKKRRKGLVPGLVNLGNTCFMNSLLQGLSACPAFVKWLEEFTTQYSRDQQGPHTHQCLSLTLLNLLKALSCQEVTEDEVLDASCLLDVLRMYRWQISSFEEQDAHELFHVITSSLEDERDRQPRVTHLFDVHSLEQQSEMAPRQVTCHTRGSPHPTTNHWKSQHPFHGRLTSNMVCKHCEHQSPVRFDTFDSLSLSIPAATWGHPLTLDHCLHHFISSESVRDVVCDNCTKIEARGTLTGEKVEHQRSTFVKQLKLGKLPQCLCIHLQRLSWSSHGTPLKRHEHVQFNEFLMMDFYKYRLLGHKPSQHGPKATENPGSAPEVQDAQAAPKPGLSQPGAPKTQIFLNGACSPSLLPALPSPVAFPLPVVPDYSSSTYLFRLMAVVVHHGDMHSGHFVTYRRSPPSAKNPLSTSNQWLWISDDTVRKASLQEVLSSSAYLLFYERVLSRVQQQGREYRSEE", "test": "USP30 biochemical fluorescence polarization assay (mouse)", "conditions": "read-out: Mouse USP30 FP assay (IC50)", "description": "USP30 enzyme was diluted in reaction buffer (40 mM Tris HCl, pH 7.5, 0.005% Tween 20, 0.5 mg/ml BSA, 5 mM BME) to achieve a final concentration of 8 nM for human USP30 and 10 nM for mouse USP30, the compound was added and incubated for 30 min at room temp then reactions initiated by addition of Ub-Lys-TAMRA (final conc of 50 nM). Fluorescence was measured immediately after the addition of substrate and following a 2 h incubation on Pherastar Plus or FSX with λ Excitation 540 nm and λ Emission 590 nm."}, "USP11": {"molecular_target": "USP11 (Homo sapiens, UniProt P51784)", "sequence (P51784 whole entry, species assumed)": "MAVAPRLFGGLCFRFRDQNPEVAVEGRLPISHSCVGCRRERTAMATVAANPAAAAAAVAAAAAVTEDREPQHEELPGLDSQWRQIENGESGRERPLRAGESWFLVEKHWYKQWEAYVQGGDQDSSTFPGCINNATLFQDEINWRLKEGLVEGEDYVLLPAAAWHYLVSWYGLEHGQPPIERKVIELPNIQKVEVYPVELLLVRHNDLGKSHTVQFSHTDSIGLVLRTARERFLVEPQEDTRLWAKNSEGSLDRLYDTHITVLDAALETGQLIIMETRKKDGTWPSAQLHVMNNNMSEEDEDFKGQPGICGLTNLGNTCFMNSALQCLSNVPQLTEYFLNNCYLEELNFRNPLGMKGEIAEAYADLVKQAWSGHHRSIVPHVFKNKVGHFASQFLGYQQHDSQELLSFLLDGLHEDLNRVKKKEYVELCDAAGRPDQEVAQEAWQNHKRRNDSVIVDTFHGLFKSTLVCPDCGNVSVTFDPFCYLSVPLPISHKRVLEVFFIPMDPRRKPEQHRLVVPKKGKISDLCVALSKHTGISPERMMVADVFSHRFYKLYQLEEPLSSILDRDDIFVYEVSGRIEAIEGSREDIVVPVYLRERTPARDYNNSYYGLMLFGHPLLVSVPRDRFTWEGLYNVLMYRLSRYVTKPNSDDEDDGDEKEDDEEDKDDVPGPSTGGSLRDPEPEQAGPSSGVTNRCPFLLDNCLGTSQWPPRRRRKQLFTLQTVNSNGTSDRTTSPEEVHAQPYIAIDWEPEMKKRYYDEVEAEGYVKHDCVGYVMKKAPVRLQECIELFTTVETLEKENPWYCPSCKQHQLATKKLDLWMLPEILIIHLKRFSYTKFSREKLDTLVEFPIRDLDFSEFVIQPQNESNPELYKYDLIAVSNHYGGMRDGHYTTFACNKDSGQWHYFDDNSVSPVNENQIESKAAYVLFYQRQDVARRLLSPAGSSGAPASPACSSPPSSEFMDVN", "test": "DUB/cathepsin selectivity biochemical assay"}, "USP12/UAF1": {"molecular_target": "USP12/UAF1 (Homo sapiens, UniProt O75317)", "test": "DUB/cathepsin selectivity biochemical assay"}, "OTUD1 CD": {"molecular_target": "T2, OTUD1 CD (Homo sapiens, UniProt Q5VV17)", "T2 construct": "OTUD1 CD", "test": "DUB/cathepsin selectivity biochemical assay"}, "ATXN3L": {"molecular_target": "ATXN3L (Homo sapiens, UniProt Q9H3M9)", "test": "DUB/cathepsin selectivity biochemical assay"}, "MINDY3": {"molecular_target": "MINDY3 (Homo sapiens, UniProt Q9H8M7)", "sequence (Q9H8M7 whole entry, species assumed)": "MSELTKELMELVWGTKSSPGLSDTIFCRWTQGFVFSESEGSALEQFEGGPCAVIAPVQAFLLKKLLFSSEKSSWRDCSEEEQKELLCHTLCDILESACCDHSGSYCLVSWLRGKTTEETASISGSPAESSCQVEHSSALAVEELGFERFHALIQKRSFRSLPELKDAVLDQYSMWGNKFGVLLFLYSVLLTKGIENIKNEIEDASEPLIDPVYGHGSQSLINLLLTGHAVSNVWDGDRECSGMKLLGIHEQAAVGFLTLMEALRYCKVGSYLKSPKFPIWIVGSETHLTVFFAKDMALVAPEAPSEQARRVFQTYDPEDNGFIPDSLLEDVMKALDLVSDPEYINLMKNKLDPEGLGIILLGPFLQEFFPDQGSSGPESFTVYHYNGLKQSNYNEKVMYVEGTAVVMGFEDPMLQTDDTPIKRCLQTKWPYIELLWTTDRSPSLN", "test": "DUB/cathepsin selectivity biochemical assay"}, "USP13": {"molecular_target": "USP13 (Homo sapiens, UniProt Q92995)", "test": "DUB/cathepsin selectivity biochemical assay"}, "CYLD": {"molecular_target": "CYLD (Homo sapiens, UniProt Q9NQC7)", "test": "DUB/cathepsin selectivity biochemical assay"}, "OTUD6B": {"molecular_target": "OTUD6B (Homo sapiens, UniProt Q8N6M0)", "test": "DUB/cathepsin selectivity biochemical assay"}, "OTUD5(p177S)": {"molecular_target": "OTUD5(p177S) (Homo sapiens, UniProt Q96G74)", "test": "DUB/cathepsin selectivity biochemical assay"}, "CEZANNE1": {"molecular_target": "CEZANNE1 (Homo sapiens, UniProt Q6GQQ9)", "sequence (Q6GQQ9 whole entry)": "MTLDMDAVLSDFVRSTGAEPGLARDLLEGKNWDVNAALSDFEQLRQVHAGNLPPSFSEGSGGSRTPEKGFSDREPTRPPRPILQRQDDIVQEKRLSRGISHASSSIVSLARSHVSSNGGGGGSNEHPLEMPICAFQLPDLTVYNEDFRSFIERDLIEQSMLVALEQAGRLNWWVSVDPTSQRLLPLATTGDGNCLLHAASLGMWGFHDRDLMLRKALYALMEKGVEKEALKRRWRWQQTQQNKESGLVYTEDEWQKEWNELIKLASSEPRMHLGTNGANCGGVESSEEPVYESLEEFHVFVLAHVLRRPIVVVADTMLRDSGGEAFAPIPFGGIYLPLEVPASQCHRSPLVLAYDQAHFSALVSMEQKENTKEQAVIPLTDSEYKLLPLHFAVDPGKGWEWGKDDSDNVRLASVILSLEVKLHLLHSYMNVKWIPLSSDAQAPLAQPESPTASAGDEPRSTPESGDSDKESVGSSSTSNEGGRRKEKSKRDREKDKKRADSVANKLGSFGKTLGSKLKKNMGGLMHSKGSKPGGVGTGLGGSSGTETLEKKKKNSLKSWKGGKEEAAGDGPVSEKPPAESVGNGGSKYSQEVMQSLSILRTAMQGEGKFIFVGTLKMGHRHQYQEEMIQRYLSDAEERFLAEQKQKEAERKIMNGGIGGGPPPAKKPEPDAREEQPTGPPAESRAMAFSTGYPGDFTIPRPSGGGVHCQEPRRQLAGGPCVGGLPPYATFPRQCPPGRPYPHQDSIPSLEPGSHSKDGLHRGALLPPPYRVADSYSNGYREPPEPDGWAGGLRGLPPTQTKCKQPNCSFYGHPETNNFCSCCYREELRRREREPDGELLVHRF", "test": "DUB/cathepsin selectivity biochemical assay"}, "[1]": {"test_system": "TOM20 ubiquitylation in HeLa cells overexpressing PARKIN", "test": "Cell TOM20 ubiquitination assay (HeLa YFP-Parkin + A/O)", "type": "cell-based, human", "conditions": "for pEC50: Homo sapiens, 1.5 h", "description": "Hela cells overexpressing YFP-Parkin were treated with 1 µM Antimycin A and 1 µM Oligomycin A (AA/OA) and test compound or DMSO for 90 mins. Following treatment, media was removed, and cells were washed in DPBS and then lysed in NP40 lysis buffer on ice. […] The bands corresponding to all forms of ubiquitylated TOM20 were quantified and normalized to the same bands for AA/OA treated cells."}, "YOD1": {"molecular_target": "YOD1 (Homo sapiens, UniProt Q5VVQ6)", "sequence (Q5VVQ6 whole entry, species assumed)": "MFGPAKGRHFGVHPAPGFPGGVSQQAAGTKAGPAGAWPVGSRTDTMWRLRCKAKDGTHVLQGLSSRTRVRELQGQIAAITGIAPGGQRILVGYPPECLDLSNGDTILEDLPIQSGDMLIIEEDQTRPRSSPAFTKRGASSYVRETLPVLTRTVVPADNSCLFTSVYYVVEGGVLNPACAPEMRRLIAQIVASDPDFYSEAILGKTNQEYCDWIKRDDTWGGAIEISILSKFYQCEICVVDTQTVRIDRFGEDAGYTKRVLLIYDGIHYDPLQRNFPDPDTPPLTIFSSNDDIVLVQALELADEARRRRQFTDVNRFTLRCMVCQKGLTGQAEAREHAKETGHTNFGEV", "test": "DUB/cathepsin selectivity biochemical assay"}, "[2]": {"test": "Mouse pharmacokinetics (IV clearance, oral bioavailability)", "type": "in vivo", "conditions": "blood"}, "USP6": {"molecular_target": "USP6 (Homo sapiens, UniProt P35125)", "sequence (P35125 whole entry, species assumed)": "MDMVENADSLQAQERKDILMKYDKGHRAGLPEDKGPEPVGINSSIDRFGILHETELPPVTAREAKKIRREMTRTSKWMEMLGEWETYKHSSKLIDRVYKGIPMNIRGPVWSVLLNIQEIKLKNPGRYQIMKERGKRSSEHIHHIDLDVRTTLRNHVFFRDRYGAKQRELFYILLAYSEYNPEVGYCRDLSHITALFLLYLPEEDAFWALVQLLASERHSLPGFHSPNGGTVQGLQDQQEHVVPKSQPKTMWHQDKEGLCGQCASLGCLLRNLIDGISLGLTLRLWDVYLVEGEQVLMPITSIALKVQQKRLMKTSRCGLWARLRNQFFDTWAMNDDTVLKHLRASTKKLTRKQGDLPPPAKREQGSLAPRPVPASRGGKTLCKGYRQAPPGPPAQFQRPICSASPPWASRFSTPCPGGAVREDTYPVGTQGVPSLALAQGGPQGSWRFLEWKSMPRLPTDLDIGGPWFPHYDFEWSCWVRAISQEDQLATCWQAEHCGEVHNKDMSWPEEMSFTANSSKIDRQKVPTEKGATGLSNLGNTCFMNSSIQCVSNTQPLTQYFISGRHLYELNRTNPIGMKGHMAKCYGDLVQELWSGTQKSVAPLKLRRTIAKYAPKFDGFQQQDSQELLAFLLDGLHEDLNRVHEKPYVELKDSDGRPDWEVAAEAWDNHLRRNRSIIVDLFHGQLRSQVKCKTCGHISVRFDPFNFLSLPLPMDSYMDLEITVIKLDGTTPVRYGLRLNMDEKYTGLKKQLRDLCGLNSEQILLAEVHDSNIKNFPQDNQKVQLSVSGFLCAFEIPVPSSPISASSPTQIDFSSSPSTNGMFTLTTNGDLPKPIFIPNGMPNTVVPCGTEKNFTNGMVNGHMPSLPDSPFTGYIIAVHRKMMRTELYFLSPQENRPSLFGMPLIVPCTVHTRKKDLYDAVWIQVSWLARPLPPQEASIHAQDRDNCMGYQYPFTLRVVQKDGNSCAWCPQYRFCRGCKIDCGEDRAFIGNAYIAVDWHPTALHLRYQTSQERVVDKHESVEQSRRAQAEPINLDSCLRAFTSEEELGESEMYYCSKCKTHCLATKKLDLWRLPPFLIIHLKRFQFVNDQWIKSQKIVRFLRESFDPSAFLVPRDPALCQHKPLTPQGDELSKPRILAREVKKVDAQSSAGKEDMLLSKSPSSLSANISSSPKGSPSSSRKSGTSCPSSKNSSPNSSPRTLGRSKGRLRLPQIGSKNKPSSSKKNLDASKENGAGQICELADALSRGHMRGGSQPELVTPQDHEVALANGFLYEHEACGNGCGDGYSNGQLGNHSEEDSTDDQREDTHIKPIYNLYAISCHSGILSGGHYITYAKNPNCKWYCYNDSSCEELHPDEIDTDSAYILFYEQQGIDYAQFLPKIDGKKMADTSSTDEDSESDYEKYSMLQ", "test": "DUB/cathepsin selectivity biochemical assay"}, "[3]": {"test_system": "AAV-A53T-SNCA PD mouse model", "test": "TH+ neuron counting in SNpc, AAV-A53T-SNCA mouse model (compound study)", "type": "in vivo", "from_the_text": "For the compound study, the fixed, cryoprotected and frozen midbrain samples were sectioned as coronal sections at 100 µm intervals through SNpc and ventral tegmental area (VTA) and mounted on glass slides. Sectioning was started at −2.6 mm from bregma and continued to −3.7 mm from bregma in the AP axis (coordinates based on Franklin & Paxinos: The Mouse Brain in Stereotaxic Coordinates). For the immunostaining, the sections were stained with anti-TH following permeabilization. The stained sections were scanned with the Olympus VS120 slide scanner and analyzed with a VIS-Visiopharm Integrator System (Visiopharm, Denmark) by a blinded data analyst. All cells of interest with visible nuclei were labeled manually and counted using an APP (Analysis Protocol Package), scaled by section thickness and sectioning interval to estimate the total cell population in the SNpc. For immunostaining of Ser129 αSyn phosphorylation, TSA amplification was used with primary antibody ab51253 (Abcam). Blinded analysis was used, and positive cells per area were determined. For dual IF IHC of Iba1 (WAKO) and GFAP (ab4674 – Abcam), the stained sections were scanned and analyzed by a blinded data analyst. Analysis determines the percentage of positive staining area [%area = (stained area/region area) * (100)]. To calculate % of stained area, the same threshold value was applied to all sections with the same antibody staining. All pixels above the threshold value were considered positive. All striatal densitometry and neuronal counting data for both KO and inhibitor studies were obtained by an investigator blinded to genotype and treatment."}, "USP1": {"molecular_target": "USP1 (Homo sapiens, UniProt O94782)", "test": "DUB/cathepsin selectivity biochemical assay"}, "USP14": {"molecular_target": "USP14 (Homo sapiens, UniProt P54578)", "test": "DUB/cathepsin selectivity biochemical assay"}, "[4]": {"test": "Mouse exploratory toxicology", "type": "in vivo", "conditions": "two weeks of dosing, dose levels up to 300 mg/kg/day"}},
  "note": "pEC50, pIC50: −log10 of the molar value. “And” between values parts separate entries of the source, which are not always exact repeats. Equal entries are not always repeated. Where two headings read alike, the source gives them in different places.",
  "data": [
    {"smiles": "C[C@@H]1[C@H]2CCN(C(=O)c3ncc(-c4ccnc(C#N)c4)o3)[C@H]2CN1C#N", "note": "[MTX115325]", "values": [
      {"measurement": "pIC50", "setting": "OTUB1/UBCH5B", "result": "< 3.52"},
      {"measurement": "pIC50", "setting": "USP2; Supplementary Fig. 6a, read-out: Selectivity vs DUBs (IC50), USP2", "result": 4.60},
      {"measurement": "pIC50", "setting": "USP2; USP2, read-out: IC50", "result": 4.60},
      {"measurement": "pIC50", "setting": "USP46/UAF1", "result": "< 3.52"},
      {"measurement": "pIC50", "setting": "USP25", "result": 4.03},
      {"measurement": "pIC50", "setting": "mouse USP30", "result": 7.89},
      {"measurement": "pIC50", "setting": "USP11", "result": 3.54},
      {"measurement": "pIC50", "setting": "USP12/UAF1", "result": "< 3.52"},
      {"measurement": "pIC50", "setting": "OTUD1 CD", "result": "< 3.52"},
      {"measurement": "pIC50", "setting": "ATXN3L", "result": 3.76},
      {"measurement": "pIC50", "setting": "MINDY3", "result": "< 3.52"},
      {"measurement": "pIC50", "setting": "USP13", "result": "< 3.52"},
      {"measurement": "pIC50", "setting": "CYLD", "result": "< 3.52"},
      {"measurement": "pIC50", "setting": "OTUD6B", "result": "< 3.52"},
      {"measurement": "pIC50", "setting": "OTUD5(p177S)", "result": "< 3.52"},
      {"measurement": "pIC50", "setting": "CEZANNE1", "result": "< 3.52"},
      {"measurement": "TOM20 ubiquitylation signal, MTX115325 + AO (Figure 4b)", "setting": "[1]; 0.0001 µM", "result": 1.19},
      {"measurement": "TOM20 ubiquitylation signal, MTX115325 + AO (Figure 4b)", "setting": "[1]; 0.0003 µM", "result": 1.5},
      {"measurement": "TOM20 ubiquitylation signal, MTX115325 + AO (Figure 4b)", "setting": "[1]; 0.001 µM", "result": 1.43},
      {"measurement": "TOM20 ubiquitylation signal, MTX115325 + AO (Figure 4b)", "setting": "[1]; 0.003 µM", "result": 1.6},
      {"measurement": "TOM20 ubiquitylation signal, MTX115325 + AO (Figure 4b)", "setting": "[1]; 0.01 µM", "result": 2.01},
      {"measurement": "TOM20 ubiquitylation signal, MTX115325 + AO (Figure 4b)", "setting": "[1]; 0.03 µM", "result": 2.55},
      {"measurement": "TOM20 ubiquitylation signal, MTX115325 + AO (Figure 4b)", "setting": "[1]; 0.1 µM", "result": 3.08},
      {"measurement": "TOM20 ubiquitylation signal, MTX115325 + AO (Figure 4b)", "setting": "[1]; 0.3 µM", "result": 3.55},
      {"measurement": "TOM20 ubiquitylation signal, MTX115325 + AO (Figure 4b)", "setting": "[1]; 1 µM", "result": 3.5},
      {"measurement": "TOM20 ubiquitylation signal, MTX115325 + AO (Figure 4b)", "setting": "[1]; 3 µM", "result": 3.33},
      {"measurement": "TOM20-Ub 1.5X interpolated value (representative profile, Fig. 4b)", "setting": "[1]; HeLa cells, 90 min, representative concentration-response", "result": 0.0020, "unit": "µM"},
      {"measurement": "TOM20-Ub EC1.5x", "setting": "[1]; HeLa-PARKIN + A/O, 90 min", "result": 10, "unit": "nM"},
      {"measurement": "pEC50", "setting": "[1]; HeLa cells, 90 min, representative concentration-response, read-out: TOM20-Ub EC50 (representative profile, Fig. 4b)", "result": 7.66},
      {"measurement": "pEC50", "setting": "[1]; HeLa-PARKIN + A/O, 90 min, read-out: TOM20-Ub EC50", "result": 7.49},
      {"measurement": "pIC50", "setting": "YOD1", "result": "< 3.52"},
      {"measurement": "bioavailability", "setting": "[2]; 10 mg/kg oral gavage vs 2 mg/kg IV", "result": 98, "unit": "%"},
      {"measurement": "clearance", "setting": "[2]; IV 2 mg/kg", "result": 19.7, "unit": "mL/min/kg"},
      {"measurement": "pIC50", "setting": "USP6", "result": 4.02},
      {"measurement": "Percentage of ipsilateral vs contralateral TH+ neurons", "setting": "[3]; 50 mg/kg BID oral, 10 weeks, vehicle 61.7%, p 0.029", "result": 89.08, "unit": "%"},
      {"measurement": "Percentage of ipsilateral vs contralateral TH+ neurons in SNpc", "setting": "[3]; AAV-A53T-SNCA mice, individual animals", "result": "43.6893 and 97.2222 and 27.4336 and 125.243 and 125 and 105.063 and 101.25 and 55.1724 and 95.8333 and 93.9394 and 113.861 and 96.0526 and 68.5315 and 98.8095"},
      {"measurement": "Beneficial effects at lower doses in a subsequent study", "setting": "[3]; lower doses, doses not given, peer review reply", "result": "not show beneficial effects"},
      {"measurement": "pIC50", "setting": "USP1", "result": "< 3.52"},
      {"measurement": "pIC50", "setting": "USP14", "result": "< 3.52"},
      {"measurement": "Tolerability (clinical observations, pathology)", "setting": "[4]", "result": "well tolerated with no adverse clinical observations or pathology findings"}
    ]}
  ]
}
